According to patent US9102710B2, “Cyclic peptides binding CXCR4 receptor and relative medical and diagnostic uses” (IRCCS-ISTITUTO NAZIONALE PER LO STUDIO E LA CURA DEI TUMORI …, priority 2010, dated 2015):

Key:
[1] = cited from earlier work
[2] = target: T1, CXCR4 receptor (Homo sapiens, UniProt P61073); test: Cytofluorimetric determination of Ca2+ release in CCFR-CEM cells after stimulation with SDF-1α; format: cell-based; details: compound 10 uM, read-out: reduction (inhibition) of Calcium release induced by SDF-1α
T1 construct: a leukaemia T CD4+ cell line with a high expression of the CXCR4 receptor; endogenous in cells; host or cells: CCRF-CEM (printed also CCFR-CEM) leukaemia T CD4+ cells
T1 sequence (P61073 whole entry): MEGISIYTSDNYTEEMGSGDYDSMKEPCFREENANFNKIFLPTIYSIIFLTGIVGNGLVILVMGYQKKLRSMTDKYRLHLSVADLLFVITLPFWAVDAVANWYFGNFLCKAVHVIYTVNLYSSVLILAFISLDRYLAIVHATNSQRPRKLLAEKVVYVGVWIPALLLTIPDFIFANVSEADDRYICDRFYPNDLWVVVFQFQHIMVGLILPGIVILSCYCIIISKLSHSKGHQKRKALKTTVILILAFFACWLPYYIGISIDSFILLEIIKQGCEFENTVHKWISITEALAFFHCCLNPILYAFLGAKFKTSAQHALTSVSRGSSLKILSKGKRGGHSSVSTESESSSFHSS
Text: For all the subsequent in vitro examples, two cell lines were used: CCFR-CEM and PES 43; the first is a leukaemia T CD4+ cell line with a high expression of the CXCR4 receptor, grown in a RPMI 1640 culture medium enriched with 10% of Fetal Bovine Serum (FBS) inactivated with heat and 1% of L-Glutamine; the second is a cell line deriving from melanoma lung metastasis called PES43 with a high expression of the CXCR4 receptor, grown in Iscove's Modified Dulbecco's Medium (IMDM) supplemented with 10% of Fetal Bovine Serum (FBS) inactivated with heat and 1% of Penicillin-Streptomycin.
The determination of the release of intracellular Calcium was effected in CCFR-CEM cells. The cells (500,000 cells) were washed with PBS, resuspended in 1 ml of Loading Buffer (PBS 1×, 1 mM CaCl2, 1 mM MgCl2, 1% FBS inactivated with heat) at 37° C., and incubated with 4 ul of the calcium tracer FLUO3-AM (1 mg/ml; Sigma) and 4 ul of Pluronic Acid F-127 (1 mg/ml in 2% of DMSO; Invitrogen) in the dark for 30′ at 37° C. under stirring. In order to remove the excess FLUO3-AM, 3 ml of Loading Buffer are added, this is followed by a centrifugation for 5′ at 1,000-1,200 rpm. The pellet thus obtained is resuspended in 1 ml of Loading Buffer. […]

[3] = system: phosphorylation of ERK 1,2; test: p-ERK induction by Immunoblotting in PES43 cells; format: cell-based, human; details: AMD3100 1 uM, SDF-1α 100 ng/ml
Procedure: CXCL12 activates the phosphorylation of ERK and this phosphorylation is inhibited by both AMD3100 (1 uM), and by the peptides css:[C-WHR-C] (10 uM), css:[C-FFR-C] (10 uM), css:[C-FFR-C]-Nam (10 uM), css:[C-WYR-C]-AR (10 uM), RA-css:[C-RFF-C] (10 uM), RA-css:[C-RHW-C] (10 uM), abb:[β-Ala-WHR-β-Ala] (10 uM).
The activation of CXCR4 induces the transduction path of MAPK through the phosphorylation of ERK 1,2. For this reason, the modulation of the induction of P-ERK was evaluated in relation to treatment with SDF-1α (100 ng/ml), peptides (10 uM) and AMD3100 (1 uM).
The cells were deprived of serum for 24 hours and then stimulated with SDF-1α.
The human melanoma cells, PES43, grown on 100 mm plates, were treated with SDF-1α, for 2-5-7-10 minutes. The cells were then mechanically detached, lysed in a specific buffer to which protease inhibitors and phosphatase inhibitors were added (120 mM NaCl, 40 mM Hepes, 5 mM MgCl2, 1 mM EGTA, 0.5 mM EDTA, 0.6% Triton, 10% glycerol, […], 1 mM Na3VO4, 1 mM NaF). The cell lysates thus obtained (50 μg of total proteins) were first denatured with Laemmli 4× and then separated with SDS-PAGE on gel at 10% in the presence of a running buffer (Tris Base, Glycine, SDS); the proteins were subsequently transferred onto a nitrocellulose membrane in incubated with primary antibodies specific for the following proteins: phospho-ERK 1/2, total ERK. […]

inhibition at 10 µM [2]: 70%
Structure (SMILES): c1cc(CN2CCCNCCNCCCNCC2)ccc1CN1CCCNCCNCCCNCC1 [AMD3100, 1,19-[1,4-phenylenebis(methylene)]-bis-1,4,8,11-azatetradecane]
time of peak of increase in white blood cell series after administration ([1]; healthy volunteers, Phase 1): 6 h
bioavailability ([1]; previous studies [4]): poor
toxicity ([1]; previous studies [4]): hepatic, cardiac and cerebellar toxicity
inhibition of SDF-1α-activated phosphorylation of ERK [3]: inhibited
